#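 GI50: concentration for 50% inhibition of growth. At the TGI there is no net growth.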
# Columns and labels:
# Assay in all cases: NCI anticancer screen, dose series, 384-well format
# [1] = system: OVCAR-5 ovarian
# [2] = system: SF-268 CNS
# [3] = system: NCI-H460 NSCLC
# [4] = system: A498 renal
# [5] = system: MCF7 breast
# [6] = system: MALME-3M melanoma
# [7] = system: NCI-H226 lung
# [8] = system: OVCAR-3 ovarian
# [9] = system: MDA-MB-435 melanoma
# [10] = system: DU-145 prostate
# [11] = system: IGROV1 ovarian
# [12] = system: SN12C renal
# [13] = system: SF-539 CNS
# [14] = system: RXF 393 renal
# [15] = system: SR leukemia
# [16] = system: CCRF-CEM leukemia
# [17] = system: HS 578T breast
# [18] = system: UACC-62 melanoma
# [19] = system: MOLT-4 leukemia
# [20] = system: M14 melanoma
# [21] = system: PC-3 prostate
# [22] = system: SNB-75 CNS
# [23] = system: BT-549 breast
# [24] = system: U251 glioblastoma
# [25] = system: SNB-19 CNS
# [26] = system: UO-31 renal
# [27] = system: OVCAR-8 ovarian
# [28] = system: MDA-MB-231 breast
# [29] = system: HT29 colon
# [30] = system: SW-620 colon
# [31] = system: HCT-116 colon
# [32] = system: EKVX NSCLC
# [33] = system: A549 NSCLC
# [34] = system: SK-OV-3 ovarian
# [35] = system: HCC-2998 colon
# [36] = system: SK-MEL-5 melanoma
# [37] = system: HCT-15 colon
# [38] = system: MDA-MB-468 breast
# [39] = system: HL-60(TB) leukemia
# [40] = system: SK-MEL-28 melanoma
# [41] = system: HOP-62 NSCLC
# [42] = system: HOP-92 NSCLC
# [43] = system: CAKI-1 renal
# [44] = system: UACC-257 melanoma
# [45] = system: T-47D breast
# [46] = system: 786-0 renal
# [47] = system: LOX IMVI melanoma
# [48] = system: SF-295 CNS
# [49] = system: NCI-H522 lung
# [50] = system: OVCAR-4 ovarian
# [51] = system: NCI-H23 lung
# [52] = system: KM12 colon
# [53] = system: NCI/ADR-RES ovarian
# [54] = system: RPMI-8226 leukemia
# [55] = system: NCI-H322M lung
# [56] = system: ACHN renal
# [57] = system: COLO 205 colon
# [58] = system: TK-10 renal
smiles,measurement,setting,value
c1cc(CN2CCCNCCNCCCNCC2)ccc1CN1CCCNCCNCCCNCC1,GI50,[1],> 100 µM
same,TGI,[1],> 100 µM
same,GI50,[2],> 100 µM
same,TGI,[2],> 100 µM
same,GI50,[3],> 100 µM
same,TGI,[3],> 100 µM
same,GI50,[4],> 100 µM
same,TGI,[4],> 100 µM
same,GI50,[5],> 100 µM
same,TGI,[5],> 100 µM
same,GI50,[6],> 100 µM
same,TGI,[6],> 100 µM
same,GI50,[7],> 100 µM
same,TGI,[7],> 100 µM
same,GI50,[8],> 100 µM
same,TGI,[8],> 100 µM
same,GI50,[9],> 100 µM
same,TGI,[9],> 100 µM
same,GI50,[10],> 100 µM
same,TGI,[10],> 100 µM
same,GI50,[11],> 100 µM
same,TGI,[11],> 100 µM
same,GI50,[12],> 100 µM
same,TGI,[12],> 100 µM
same,GI50,[13],> 100 µM
same,TGI,[13],> 100 µM
same,GI50,[14],> 100 µM
same,TGI,[14],> 100 µM
same,GI50,[15],> 100 µM
same,TGI,[15],> 100 µM
same,GI50,[16],> 100 µM
same,TGI,[16],> 100 µM
same,GI50,[17],> 100 µM
same,TGI,[17],> 100 µM
same,GI50,[18],> 100 µM
same,TGI,[18],> 100 µM
same,GI50,[19],> 100 µM
same,TGI,[19],> 100 µM
same,GI50,[20],> 100 µM
same,TGI,[20],> 100 µM
same,GI50,[21],> 100 µM
same,TGI,[21],> 100 µM
same,GI50,[22],> 100 µM
same,TGI,[22],> 100 µM
same,GI50,[23],> 100 µM
same,TGI,[23],> 100 µM
same,GI50,[24],> 100 µM
same,TGI,[24],> 100 µM
same,GI50,[25],> 100 µM
same,TGI,[25],> 100 µM
same,GI50,[26],> 100 µM
same,TGI,[26],> 100 µM
same,GI50,[27],> 100 µM
same,TGI,[27],> 100 µM
same,GI50,[28],> 100 µM
same,TGI,[28],> 100 µM
same,GI50,[29],> 100 µM
same,TGI,[29],> 100 µM
same,GI50,[30],> 100 µM
same,TGI,[30],> 100 µM
same,GI50,[31],> 100 µM
same,TGI,[31],> 100 µM
same,GI50,[32],> 100 µM
same,TGI,[32],> 100 µM
same,GI50,[33],> 100 µM
same,TGI,[33],> 100 µM
same,GI50,[34],> 100 µM
same,TGI,[34],> 100 µM
same,GI50,[35],> 100 µM
same,TGI,[35],> 100 µM
same,GI50,[36],> 100 µM
same,TGI,[36],> 100 µM
same,GI50,[37],> 100 µM
same,TGI,[37],> 100 µM
same,GI50,[38],> 100 µM
same,TGI,[38],> 100 µM
same,GI50,[39],> 100 µM
same,TGI,[39],> 100 µM
same,GI50,[40],> 100 µM
same,TGI,[40],> 100 µM
same,GI50,[41],> 100 µM
same,TGI,[41],> 100 µM
same,GI50,[42],> 100 µM
same,TGI,[42],> 100 µM
same,GI50,[43],> 100 µM
same,TGI,[43],> 100 µM
same,GI50,[44],> 100 µM
same,TGI,[44],> 100 µM
same,GI50,[45],> 100 µM
same,TGI,[45],> 100 µM
same,GI50,[46],> 100 µM
same,TGI,[46],> 100 µM
same,GI50,[47],> 100 µM
same,TGI,[47],> 100 µM
same,GI50,[48],> 100 µM
same,TGI,[48],> 100 µM
same,GI50,[49],> 100 µM
same,TGI,[49],> 100 µM
same,GI50,[50],> 100 µM
same,TGI,[50],> 100 µM
same,GI50,[51],> 100 µM
same,TGI,[51],> 100 µM
same,GI50,[52],> 100 µM
same,TGI,[52],> 100 µM
same,GI50,[53],> 100 µM
same,TGI,[53],> 100 µM
same,GI50,[54],> 100 µM
same,TGI,[54],> 100 µM
same,GI50,[55],> 100 µM
same,TGI,[55],> 100 µM
same,GI50,[56],> 100 µM
same,TGI,[56],> 100 µM
same,GI50,[57],> 100 µM
same,TGI,[57],> 100 µM
same,GI50,[58],> 100 µM
same,TGI,[58],> 100 µM

# Source: PubChem BioAssay (NCI)
